± gives the expanded uncertainty stated by the source.

Series [1] can be described thus: refractive index (Na D-line) (dimensionless). Conditions: 101.33 kPa, Liquid, Standard Abbe refractometry.
The conditions of series [2]: 101.33 kPa, Liquid.
Series [3] in a line: molar heat capacity at constant pressure; xn = mol fraction of the nth substance listed. Conditions: Liquid, x1 = 1.

Usually refractive index stands for the speed of light in vacuum divided by its phase velocity in the sample. The term mass density denotes mass per unit of volume. What is called viscosity is the internal friction of a fluid under shear. As for `OCCc1ccccc1` [2-phenylethanol], in series [1] (308.15 K), the refractive index worked out at 1.5267 ± 0.0008. Further, in series [2] (308.15 K), the mass density is on record as 1008.79 ± 0.54 kg/m3 and the viscosity came to 7.438 ± 0.12 mPa·s.

In the case of `OCCCc1ccccc1` [3-phenyl-1-propanol], the refractive index in series [1] (308.15 K) is on record as 1.521 ± 0.001. The viscosity in series [2] (298.15 K) came to 10.13 ± 0.17 mPa·s. For the same molecule, in series [2] (308.15 K), the mass density is 991.17 ± 0.53 kg/m3.

As to `OCc1ccccc1` [benzenemethanol], the refractive index amounted to 1.5377 ± 0.0005 in series [1] (298.15 K) and 1.535 ± 0.0005 in series [1] (308.15 K). Moreover, the results for the mass density in series [2] (298.15 K) and in series [2] (308.15 K) were 1041.65 ± 0.27 kg/m3 and 1033.66 ± 0.25 kg/m3, respectively. In addition, the viscosity came out at 5.211 ± 0.076 mPa·s in series [2] (298.15 K) and 4.125 ± 0.062 mPa·s in series [2] (308.15 K).

In the case of `C[S+](C)[O-]` [dimethyl sulfoxide], the figures for the refractive index in series [1] (298.15 K) and in series [1] (308.15 K) were 1.4775 ± 0.0004 and 1.473 ± 0.0004, respectively. Further, the viscosity in series [2] (298.15 K, Capillary tube (Ostwald / Ubbelohde) method) is 1.989 ± 0.023 mPa·s; in series [2] (308.15 K, Capillary tube (Ostwald / Ubbelohde) method), 1.645 ± 0.019 mPa·s. Further, the mass density was found to be 1095.68 ± 0.09 kg/m3 in series [2] (298.15 K, Vibrating tube method) and 1085.31 ± 0.09 kg/m3 in series [2] (308.15 K, Vibrating tube method).

As for `C[S+](C)[O-]` [dimethyl sulfoxide] + OCCCc1ccccc1, the “molar heat capacity at constant pressure” value in series [3] (298.15 K, 101 kPa) is reported as 142.7 ± 11 J/K/mol; in series [3] (308.15 K, 101 kPa), 143.5 ± 12 J/K/mol; in series [3] (318.15 K, 101 kPa), 144.6 ± 12 J/K/mol.

Turning to `C[S+](C)[O-]` [dimethyl sulfoxide] + OCCc1ccccc1, the “molar heat capacity at constant pressure” value in series [3] (298.15 K, 101.33 kPa) worked out at 142.7 ± 11 J/K/mol; in series [3] (308.15 K, 101.33 kPa), 143.5 ± 12 J/K/mol; in series [3] (318.15 K, 101.33 kPa), 144.6 ± 12 J/K/mol.

Take `C[S+](C)[O-]` [dimethyl sulfoxide] + OCc1ccccc1: the “molar heat capacity at constant pressure” value in series [3] (298.15 K, 101.33 kPa) is listed as 142.7 ± 11 J/K/mol; in series [3] (308.15 K, 101.33 kPa), 143.5 ± 12 J/K/mol; in series [3] (318.15 K, 101.33 kPa), 144.6 ± 12 J/K/mol.

(Values after the NIST ThermoML archive (doi:10.1021/je0501991).)
